From patent publication US5661182A, “Method for lowering oxygen affinity of hemoglobin in redcell suspensions, in whole blood and in vivo” (Virginia Commonwealth University, priority 1995, dated 1997)
“Also recorded” adds a separate entry of the source.

Columns and labels:
[1] = target: hemoglobin in fresh bovine red blood cells (Bos taurus, UniProt P01966+P02070); assay: Oxygen binding of fresh bovine red blood cells (p50); format: cell-based; details: for RBC (p50): bovine RBC, effector 0.5 mM, pH 7.4, 37 °C
hemoglobin in fresh bovine red blood cells, sequence (P01966 whole entry): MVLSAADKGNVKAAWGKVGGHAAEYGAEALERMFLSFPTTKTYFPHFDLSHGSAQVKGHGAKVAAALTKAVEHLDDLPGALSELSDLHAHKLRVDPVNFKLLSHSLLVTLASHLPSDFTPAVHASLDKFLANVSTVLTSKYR
hemoglobin in fresh bovine red blood cells, sequence (P02070 whole entry): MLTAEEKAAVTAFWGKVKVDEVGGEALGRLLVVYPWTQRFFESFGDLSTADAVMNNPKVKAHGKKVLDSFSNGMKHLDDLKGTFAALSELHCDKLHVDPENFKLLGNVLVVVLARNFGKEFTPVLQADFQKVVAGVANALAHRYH
Procedure: (§1) Human blood was collected on heparin from healthy nonsmoking donors. Bovine blood was provided by Pr Delpech, INA (Paris-Grignon). Red blood cells were washed three times in isotonic buffer, kept at 4° C., and used within 24 h after sampling. Hemoglobin Yakima, a high-oxygen-affinity variant [α2 β2 99 (G1) Asp>>His], was obtained from a known heterozygous carrier. Fresh Yakima red cells were processed in the same way as described above.
(§2) L3,5 and L3,4,5 were provided by Dr. Lalezari (Montefiore Hospital, New York); RSR-4 [2-[4-[[(3,5-dichloroanilino)carbonyl]methyl]phenoxy]-2-methylpropionic acid]and RSR13 [2-4-[[(3,5- dimethylanilino)carbonyl]methyl]phenoxy]-2-methylpropionic acid] have been synthesized following the procedure described in Randad et al. (J. Med. Chem. 34,752 (1991)). Human serum albumin (HSA), bovine serum albumin (BSA) and 4,4'diisothiocyanatostilbene-2,2'-disulfonate (DIDS) were purchased from Sigma (St. Louis, Mo.). Due to their low solubility in aqueous buffer, 10 mM stock solutions of the compounds were prepared in a slight exccess of sodium bicarbonate and back-titrated to pH 7.4. For example, RSR-4 or RSR-13 was dissolved at 60° C. in a 140 mM NaCl and 50 mM bis-Tris buffer at room temperature upon progressive addition of NaHCO3 to obtain 10 mM stock solutions. The pH was carefully adjusted to 7.4 after complete solubilization and before use of the solutions. Fresh solutions were prepared each week. Stock solutions of DIDS (1 mM) were prepared, in the dark, on the day of the experiments in a pH 7.4 buffer. Human serum albumin (defatted HSA) and bovine serum albumin (BSA) were prepared freshly as 1 mM stock solutions, pH 7.4. Equilibrium Measurements. The allosteric modulation of the effectors on freshly prepared solutions of hemoglobin or red cell suspensions was measured by the change in p50, the partial pressure of oxygen for half-saturation. Oxygen equilibrium curves (OEC) were carried out with the Hemox analyzer (TCS, Southampton, Pa.) under the following conditions: pH 7.4, 140 mM NaCl and 50 mM bis-Tris buffer at 37° C. In all experiments, the concentration of hemoglobin in the red cell suspensions was 20-25 μM hemoglobin tetramer (Hb4) as measured by Drabkin's method (cyanomethemoglobin) at the end of each recording. The final concentration of the allosteric effector in the cuvette was 0.5 mM, resulting in an effector/Hb4 ratio of 20 in the absence of albumin. OEC were also made in the same buffer containing 12.5, 25, 50, and 100 μM HSA (for human red cell suspensions) or BSA (for bovine cell suspensions). The serum albumin experiments were carried out with traces of an antifoaming agent. This agent has no deleterious effect on the red cell suspensions. The molar ratio of albumin to tetrameric hemoglobin was varied from 0.5 (at 12.5 μM HSA) to 4 (at 100 μM HSA); in whole blood this ratio is approximately 0.3 (0.7 mM albumin plus plasma proteins/2.25 mM Hb4). Therefore, the concentration of albumin used in the present studies was always larger relative to tetrameric hemoglobin than that found in whole blood.
Bovine Red Cell Studies. Table 2 presents data for oxygen binding measurements for fresh bovine red blood cells and isolated Hb solutions on addition of the effectors L3,5, RSR-4, and RSR-13. The experimental conditions used were the same as described in conjunction with Table 1 for human red blood cells. The oxygen equilibrium curves for Hb solutions were made at pH 7.2, 100 mM NaCl and 50 mM bis-Tris buffer at 25° C. Catalase (20 μg/mL) and 50 μM EDTA were added to oppose oxidation of the hemes. The concentration of the effectors was 0.5 mM in all conditions. In Table 2, BSA is bovine serum albumin and P50 (mmHg) is the pO2 for 50% saturation.

[2] = target: intracellular hemoglobin, human red cells (Homo sapiens, UniProt P68871+P69905); assay: Kinetics of interaction between effectors and intracellular hemoglobin (absorbance at 560 nm) in human red cell suspensions; format: cell-based; details: for ΔA560: effector 0.5 mM, room air
intracellular hemoglobin, human red cells, sequence (P69905 whole entry): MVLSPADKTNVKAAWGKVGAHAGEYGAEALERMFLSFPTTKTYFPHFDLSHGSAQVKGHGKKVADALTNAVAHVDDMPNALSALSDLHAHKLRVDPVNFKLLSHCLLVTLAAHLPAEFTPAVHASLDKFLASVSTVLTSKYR
intracellular hemoglobin, human red cells, sequence (P68871 whole entry): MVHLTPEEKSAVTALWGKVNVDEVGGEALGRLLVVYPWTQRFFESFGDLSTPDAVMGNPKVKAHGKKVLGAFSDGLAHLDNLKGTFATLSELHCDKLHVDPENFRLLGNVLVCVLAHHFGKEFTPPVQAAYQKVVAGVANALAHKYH
Procedure: (§3) Equilibrium oxygen binding curves were also recorded for red cell suspensions (10% hematocrit) that had been reacted for 30 min in the dark at 37° C. with 20 μM DIDS, a specific inhibitor of the red cell membrane anion channel. Kinetic Experiments. The kinetics of the interaction between the effectors and intracellular hemoglobin were measured in the absence and presence of varying concentrations of HSA. The red cell suspensions were equilibrated under room air (pO2 =140 mmHg) at 37° C. in the optical cuvette of the Hemox analyzer, which provides a constant stirring of the suspensions. […] Changes in absorbance were recorded and stored on tape for further analyses.
An increase in absorbance at 560 nm (εmax for deoxy-Hb in the visible spectrum) under room air indicates the formation of partially deoxygenated Hb in the red cells and a decreased oxygen affinity of Hb, provided that the pH is held constant.
Examples of these kinetic recordings are illustrated in FIG. 4. Two indices were calculated from the experimental values: ΔA560 is the difference in optical density from the base line to the plateau and t1/2 is […]. […]

[3] = target: hemoglobin in fresh human red blood cells (Homo sapiens, UniProt P68871+P69905); assay: Oxygen equilibrium curves of fresh human red cell suspensions (p50); format: cell-based; details: for potency in raising p50 / lowering the oxygen affinity: fresh human red cells, absence of albumin; for P50: effector 0.5 mM, pH 7.4, 37 °C; for inhibition of the allosteric effect by albumin: human red cells, 50 or 100 μM HSA
hemoglobin in fresh human red blood cells, sequence (P69905 whole entry): as the sequence (P69905 whole entry) above
hemoglobin in fresh human red blood cells, sequence (P68871 whole entry): as the sequence (P68871 whole entry) above
Procedure: as §1, §2
as §3, with “analyses. […]” for “analyses.”

[4] = tested on: hemoglobin; assay: Comparison of allosteric effector strength (right shift of oxygen equilibrium curve); format: biochemical; details: compounds of FIG. 1
[5] = time for half-ΔA560, effector 0.5 mM, 12.5 μM HSA, 37 °C
[6] = time for half-ΔA560, effector 0.5 mM, 50 μM HSA, 37 °C
[7] = time for half-ΔA560, effector 0.5 mM, 100 μM HSA, 37 °C
[8] = time for half-ΔA560, effector 0.5 mM, no HSA, 37 °C
[9] = human RBC pre-incubated 30 min with DIDS, no HSA
[10] = human RBC suspension, 50 μM HSA
[11] = human RBC suspension, 100 μM HSA

Structure (SMILES)	RBC (p50) ([1]; no BSA)	order of potency in lowering the oxygen affinity ([1]; bovine red cells)	ΔA560 ([2]; 12.5 μM HSA, 37 °C)	ΔA560 ([2]; 50 μM HSA, 37 °C)	ΔA560 ([2]; 100 μM HSA, 37 °C)	ΔA560 ([2]; no HSA, 37 °C)	t1/2 ([2]; in the absence of albumin)	t1/2 [2, 5]	t1/2 [2, 6]	t1/2 [2, 7]	t1/2 [2, 8]	potency in raising p50 / lowering the oxygen affinity [3]	P50 [3, 9]	P50 [3, 10]	P50 [3, 11]	P50 ([3]; human RBC suspension, no HSA)	inhibition of the allosteric effect by albumin [3]	allosteric effector strength [4]	p50 shift relative to control at 500 µM ([1]; bovine red cells, 0.5 mM)	also measured
CC(C)(Oc1ccc(CC(=O)Nc2cc(Cl)cc(Cl)c2)cc1)C(=O)O [RSR-4, 2-[4-[[(3,5-dichloroanilino)carbonyl]methyl]phenoxy]-2-methylpropionic acid]	54 mmHg	RSR-4>>L3,5>RSR-13	0.107	0.086	0.042	0.152	1 min	1.53 min	1.27 min	1.45 min	1 min	comparable; also recorded: almost equally potent effectors; also recorded: L3,5≈RSR-4>RSR-13	49 mm Hg	44.0 mm Hg	36 mm Hg	52.5 mm Hg	less inhibited by albumin than the closely related compound L3,5; also recorded: much lower inhibition of RSR-4 by serum albumin than that observed with L3,5; also recorded: much less inhibited by 50 or 100 μM albumin than observed with L3,5	L3,5≈RSR-4>RSR-13		RBC (p50) ([1]; 50 μM BSA): 45 mmHg; effect on control p50 ([1]; bovine red cells, 0.5 mM, without and with 50 μM BSA): doubling of the control p50 and persists even in the presence of 50 μM BSA; P50 ([3]; human RBC suspension, 12.5 μM HSA): 48.5 mm Hg
CC(C)(Oc1ccc(NC(=O)Nc2cc(Cl)cc(Cl)c2)cc1)C(=O)O [L3,5, reference compound]	35 mmHg	RSR-4>>L3,5>RSR-13	0.124	0.058	0.029	0.181		1.54 min	1.83 min	1.92 min	0.55 min	comparable; also recorded: almost equally potent effectors; also recorded: L3,5≈RSR-4>RSR-13	54 mm Hg	32 mm Hg	28 mm Hg	60 mm Hg		L3,5≈RSR-4>RSR-13; also recorded: much stronger allosteric effect	30%	
Cc1cc(C)cc(NC(=O)Cc2ccc(OC(C)(C)C(=O)O)cc2)c1 [RSR-13]	31 mmHg	RSR-4>>L3,5>RSR-13		0.082	0.067	0.085	over 2 min		2.3 min	2.08 min	2.32 min	weakest in reducing the oxygen affinity of Hb, relative to L3,5 or RSR-4; also recorded: L3,5≈RSR-4>RSR-13		34.0 mm Hg	32.6 mm Hg	37.8 mm Hg	much less affected by serum albumin, and its effect persists even in the presence of 100 1-M HSA	L3,5≈RSR-4>RSR-13	15%	change in t1/2 upon addition of albumin ([2]; HSA added): No change
